This is an account of results in patent publication US20200179428A1, “CYCLIC PHOSPHATE SUBSTITUTED NUCLEOSIDE DERIVATIVES AND METHODS OF USE THEREOF FOR THE TREATMENT OF VIRAL DISEASES” (priority 2016, published 2020).

Where only a bound is given, the exact number is not on record here.

For one series, the system named is replicon cells (1b-Con1). In words: Replicon activity assay (replicon RNA level by real-time RT-PCR, Taqman). Type of series: cell-based. Conditions: HCV replicon genotype 1b; read-out: EC50 (1b) Range. On the procedure: (§1) To measure cell-based anti-HCV activity of the compounds of the present invention, replicon cells (1b-Con1) are seeded at 5000 cells/well in 96-well plates one day prior to treatment with a compound of the invention. Various concentrations of a test compound of the invention in DMSO are then added to the replicon cells, with the final concentration of DMSO at 0.5% and fetal bovine serum at 10% in the assay media. Cells are harvested three days post-dosing, and the replicon RNA level is determined using real-time RT-PCR (Taqman assay) with GAPDH RNA as endogenous control. EC50 values are calculated from experiments with 10 serial twofold dilutions of the inhibitor in triplicate. To measure cytotoxicity in replicon cells of an inhibitor, an MTS assay is performed according to the manufacturer's protocol for CellTiter 96 Aqueous One Solution Cell Proliferation Assay (Promega, Cat # G3580) three days post dosing on cells treated identically as in replicon activity assays. […] Cytotoxicity in other types of cells may be measured using the same MTS protocol.
For orientation: A replicon is a self-replicating genome or part of one, used to study replication in cells.
The term EC50 denotes the concentration that produces a half-maximal response. Turning to `C#C[C@]1(C)[C@@H]2OP(=O)(OCC(C)CC(=O)OC3CCCC3)OC[C@H]2O[C@H]1n1ccc(=O)[nH]c1=O` (single isomer, unassigned) [Compound 3A], the EC50 was > 10 µM.
The same measure, in the same setting: the result for `CC(CCOP1(=O)OC[C@H]2O[C@@H](n3ccc(=O)[nH]c3=O)[C@](C)(N)[C@@H]2O1)C(=O)OC1CCCC1` (single isomer, unassigned) [Compound 14A1] reads > 10 µM.

Staying with this series, now noted: Hepatitis C virus, HCV replicon genotype 1b; read-out: EC50 (1b) Range.
On to `C[C@@]1(N)[C@@H]2O[P@@](=O)(OCCC3(C(=O)OC4CCCC4)CC3)OC[C@H]2O[C@H]1n1ccc(=O)[nH]c1=O` [Compound 26A], for which the half-maximal effective concentration (EC50) is > 10 µM.
Turning to `CC(C)OC(=O)[C@@H](C)CCOP1(=O)OC[C@H]2O[C@@H](n3cnc4c(N)ncnc43)[C@](C)(Cl)[C@@H]2O1` (single isomer, unassigned) [Compound 35A2], the concentration for a half-maximal effect (EC50) was ≤ 0.25 µM.
The same measure, in the same setting: next, `CC(C)OC(=O)C(C)CCOP1(=O)OC[C@H]2O[C@@H](n3ccc(=O)[nH]c3=O)[C@](C)(Cl)[C@@H]2O1` (single isomer, unassigned) [Compound 39B1]: ≤ 0.25 µM.
Consider `CC(C)OC(=O)CS(=O)(=O)CCO[P@@]1(=O)OC[C@H]2O[C@@H](n3ccc(=O)[nH]c3=O)[C@](C)(N)[C@@H]2O1` [Compound 58A], for which the half-maximal effective concentration (EC50) was > 10 µM.
On to `C#C[C@]1(C)[C@@H]2O[P@@](=O)(OCC[C@H](NC(=O)OC)C(=O)OC(C)C)OC[C@H]2O[C@H]1n1ccc(=O)[nH]c1=O` [Compound 43A], for which the EC50 is > 10 µM.
For the molecule `CC(C)OC(=O)C1CC1CO[P@]1(=O)OC[C@H]2O[C@@H](n3ccc(=O)[nH]c3=O)[C@](C)(N)[C@@H]2O1` (stereo partly shown) [Compound 47B], the EC50 was > 10 µM.
On the same count and under the same terms, the result for `C#C[C@]1(C)[C@@H]2O[P@@](=O)(OC[C@@H](F)CC(=O)OC(C)C)OC[C@H]2O[C@H]1n1ccc(=O)[nH]c1=O` [Compound 64A] reads 0.25 to 1 µM.
On the same count and under the same terms, the result for `C#C[C@@]1(O)[C@@H]2OP(=O)(OCC[C@H](C)C(=O)OC3CCCC3)OC[C@H]2O[C@H]1n1ccc(=O)[nH]c1=O` (single isomer, unassigned) [Compound 8A1] reads 0.25 to 1 µM; that for `C#C[C@]1(C)[C@@H]2O[P@@](=O)(OCC[C@@H](OC)C(=O)OC(C)C)OC[C@H]2O[C@H]1n1ccc(=O)[nH]c1=O` [Compound 57A], 1 to 10 µM.
The same measure, in the same setting: next, `C#C[C@]1(C)[C@@H]2O[P@](=O)(OCCC(CC)C(=O)OC(C)C)OC[C@H]2O[C@H]1n1ccc(=O)[nH]c1=O` (stereo partly shown) [Compound 31B]: > 10 µM; `C#C[C@]1(C)[C@@H]2O[P@](=O)(OC[C@H](CC(=O)OC(C)C)OC)OC[C@H]2O[C@H]1n1ccc(=O)[nH]c1=O` [Compound 60B]: > 10 µM; `C#C[C@]1(C)[C@@H]2O[P@@](=O)(OC[C@@H](CC(=O)OC(C)C)OC)OC[C@H]2O[C@H]1n1ccc(=O)[nH]c1=O` [Compound 62A]: > 10 µM.
For `C#C[C@]1(C)[C@@H]2O[P@](=O)(OCCC(C(=O)OC(C)C)C(C)C)OC[C@H]2O[C@H]1n1ccc(=O)[nH]c1=O` (stereo partly shown) [Compound 32B], the 50% effective concentration (EC50) is > 10 µM.
Still for that read-out and setting: next, `C#C[C@]1(C)[C@@H]2O[P@](=O)(OCCOCC(=O)OC(C)C)OC[C@H]2O[C@H]1n1ccc(=O)[nH]c1=O` [Compound 68B]: 1 to 10 µM.
Still for that read-out and setting: the result for `CC(C)OC(=O)C1(CCO[P@]2(=O)OC[C@H]3O[C@@H](n4ccc(=O)[nH]c4=O)[C@](C)(N)[C@@H]3O2)CC1` [Compound 27B] reads > 10 µM; that for `C#C[C@@]1(O)[C@@H]2O[P@](=O)(OCCC(C(=O)OC(C)C)C(=O)OC(C)C)OC[C@H]2O[C@H]1n1ccc(=O)[nH]c1=O` [Compound 59B], ≤ 0.25 µM.
Consider `CO[C@@H](CO[P@@]1(=O)OC[C@H]2O[C@@H](n3ccc(=O)[nH]c3=O)[C@](C)(N)[C@@H]2O1)CC(=O)OC(C)C` [Compound 63A], for which the half-maximal effective concentration (EC50) was > 10 µM.
With `C[C@@]1(N)[C@@H]2O[P@](=O)(OCCC3CCOC3=O)OC[C@H]2O[C@H]1n1ccc(=O)[nH]c1=O` (stereo partly shown) [Compound 46B], the EC50 was > 10 µM.

Test system in another series: not listed separately
In words: Cytotoxicity MTS assay (CellTiter 96 Aqueous One Solution) in replicon cells. Format: cell-based. Particulars: HCV replicon cells (1b-Con1); EDU; read-out: CC50 (EDU) Range. As to the method:
as §1
On the technique in general: Formazan colour is commonly taken as a measure of viable cells.
One may read the CC50 as the concentration that lowers cell viability or growth by half. Regarding `C[C@@]1(N)[C@@H]2O[P@@](=O)(OCCC3(C(=O)OC4CCCC4)CC3)OC[C@H]2O[C@H]1n1ccc(=O)[nH]c1=O` [Compound 26A], the CC50 at 3 days was > 50 µM.
Turning to `CC(C)OC(=O)[C@@H](C)CCOP1(=O)OC[C@H]2O[C@@H](n3cnc4c(N)ncnc43)[C@](C)(Cl)[C@@H]2O1` (single isomer, unassigned) [Compound 35A2], the CC50 at 3 days was > 50 µM.
`CC(C)OC(=O)C(C)CCOP1(=O)OC[C@H]2O[C@@H](n3ccc(=O)[nH]c3=O)[C@](C)(Cl)[C@@H]2O1` (single isomer, unassigned) [Compound 39B1]: the CC50 at 3 days is > 50 µM.
With `CC(C)OC(=O)CS(=O)(=O)CCO[P@@]1(=O)OC[C@H]2O[C@@H](n3ccc(=O)[nH]c3=O)[C@](C)(N)[C@@H]2O1` [Compound 58A], the half-maximal cytotoxic concentration (CC50) at 3 days was < 50 µM.
On to `C#C[C@]1(C)[C@@H]2O[P@@](=O)(OCC[C@H](NC(=O)OC)C(=O)OC(C)C)OC[C@H]2O[C@H]1n1ccc(=O)[nH]c1=O` [Compound 43A], for which the CC50 at 3 days is > 50 µM.
Same read-out and setting: the result for `CC(C)OC(=O)C1CC1CO[P@]1(=O)OC[C@H]2O[C@@H](n3ccc(=O)[nH]c3=O)[C@](C)(N)[C@@H]2O1` (stereo partly shown) [Compound 47B] reads > 50 µM; that for `C#C[C@]1(C)[C@@H]2O[P@@](=O)(OC[C@@H](F)CC(=O)OC(C)C)OC[C@H]2O[C@H]1n1ccc(=O)[nH]c1=O` [Compound 64A], > 50 µM.
With `C#C[C@@]1(O)[C@@H]2OP(=O)(OCC[C@H](C)C(=O)OC3CCCC3)OC[C@H]2O[C@H]1n1ccc(=O)[nH]c1=O` (single isomer, unassigned) [Compound 8A1], the CC50 at 3 days is > 50 µM.
Same read-out and setting: the result for `C#C[C@]1(C)[C@@H]2O[P@@](=O)(OCC[C@@H](OC)C(=O)OC(C)C)OC[C@H]2O[C@H]1n1ccc(=O)[nH]c1=O` [Compound 57A] reads > 50 µM; that for `C#C[C@]1(C)[C@@H]2O[P@](=O)(OCCC(CC)C(=O)OC(C)C)OC[C@H]2O[C@H]1n1ccc(=O)[nH]c1=O` (stereo partly shown) [Compound 31B], > 50 µM; that for `C#C[C@]1(C)[C@@H]2O[P@](=O)(OC[C@H](CC(=O)OC(C)C)OC)OC[C@H]2O[C@H]1n1ccc(=O)[nH]c1=O` [Compound 60B], > 50 µM.
The same measure, in the same setting: next, `C#C[C@]1(C)[C@@H]2O[P@@](=O)(OC[C@@H](CC(=O)OC(C)C)OC)OC[C@H]2O[C@H]1n1ccc(=O)[nH]c1=O` [Compound 62A]: > 50 µM; `C#C[C@]1(C)[C@@H]2OP(=O)(OCC(C)CC(=O)OC3CCCC3)OC[C@H]2O[C@H]1n1ccc(=O)[nH]c1=O` (single isomer, unassigned) [Compound 3A]: > 50 µM.
Take `C#C[C@]1(C)[C@@H]2O[P@](=O)(OCCC(C(=O)OC(C)C)C(C)C)OC[C@H]2O[C@H]1n1ccc(=O)[nH]c1=O` (stereo partly shown) [Compound 32B]: the CC50 at 3 days was > 50 µM.
Same read-out and setting: the result for `C#C[C@]1(C)[C@@H]2O[P@](=O)(OCCOCC(=O)OC(C)C)OC[C@H]2O[C@H]1n1ccc(=O)[nH]c1=O` [Compound 68B] reads > 50 µM.
On to `CC(C)OC(=O)C1(CCO[P@]2(=O)OC[C@H]3O[C@@H](n4ccc(=O)[nH]c4=O)[C@](C)(N)[C@@H]3O2)CC1` [Compound 27B], for which the CC50 at 3 days is > 50 µM.
Same read-out and setting: next, `C#C[C@@]1(O)[C@@H]2O[P@](=O)(OCCC(C(=O)OC(C)C)C(=O)OC(C)C)OC[C@H]2O[C@H]1n1ccc(=O)[nH]c1=O` [Compound 59B]: > 50 µM; `CO[C@@H](CO[P@@]1(=O)OC[C@H]2O[C@@H](n3ccc(=O)[nH]c3=O)[C@](C)(N)[C@@H]2O1)CC(=O)OC(C)C` [Compound 63A]: > 50 µM.
On the same count and under the same terms, next, `C[C@@]1(N)[C@@H]2O[P@](=O)(OCCC3CCOC3=O)OC[C@H]2O[C@H]1n1ccc(=O)[nH]c1=O` (stereo partly shown) [Compound 46B]: > 50 µM.
Take `CC(CCOP1(=O)OC[C@H]2O[C@@H](n3ccc(=O)[nH]c3=O)[C@](C)(N)[C@@H]2O1)C(=O)OC1CCCC1` (single isomer, unassigned) [Compound 14A1]: the CC50 at 3 days is > 50 µM.
